Results: patent US9079899B2, “Anti-staphylococcal celecoxib derivatives” (THE OHIO STATE UNIVERSITY, priority 2010, dated 2015)
Values after ≈ are worked out from the molar mass of the structure shown. Where two headings read alike, the source gives them in different places.

Legend:
S. aureus (ATCC 29213) = test: MIC, broth microdilution; format: cell-based; settings: Staphylococcus aureus, ATCC29213, 24 h, CAMHB, 24 h, 37° C.; read-out: MIC S. aureus (ATCC 29213)
[1] = system: S. epidermidis (ATCC 35984); test: MIC, broth microdilution; format: cell-based; settings: Staphylococcus epidermidis, ATCC35984, 24 h, CAMHB, 24 h, 37° C.; read-out: MIC S. epidermidis (ATCC 35984)
MRSA (ATCC 33592) = test: MIC, broth microdilution; format: cell-based, methicillin-resistant Staphylococcus aureus; settings: Staphylococcus aureus; read-out: MIC MRSA (ATCC 33592)
[2] = system: HT-29 human colon adenocarcinoma cells; test: Antiproliferative assay (MTT); format: cell-based; settings: for IC50: Homo sapiens, HT-29, 24-h exposure, 10% FBS-supplemented RPMI 1640, MTT
Experimental: As celecoxib has been reported to be cytotoxic to cancer cells, the growth inhibitory activities of celecoxib and selected derivatives were assessed in. HT-29 human colon adenocarcinoma cells after 24-h exposure in 10% FBS-supplemented RPMI 1640 medium.
Antiproliferative assay. The cytotoxicity of individual test agents in HT-29 human colon adenocarcinoma cells was evaluated by using the 3-(4,5-dimethylthiazol-2-yl)-2,5-diphenyltetrazolium (MTT) assay. Briefly, HT-29 cells were seeded into 96-well plates at 1×10^4 cells/well (with a minimum of 6 wells per test condition) in RPMI 1640 medium supplemented with 10% FBS and 10 μg/ml of gentamicin. After overnight incubation at 37° C. under 5% CO2, the medium from each well was removed and replenished with fresh aliquots of the same medium containing various concentrations of test agents dissolved in DMSO (final concentration, 0.1%). Control cells were treated with DMSO alone at a concentration equal to that in drug-treated cells. After 24 h of drug exposure, the medium was removed and replaced by 100 μl of 0.5 mg/ml MTT in 10% FBS-containing medium, and the cells were incubated in the CO2 incubator at 37° C. for 2 h. Subsequently, medium was removed from each well, and the reduced MTT dye was dissolved with 100 μl of DMSO per well. Absorbance at 570 nm was measured with a plate reader. The 50% inhibitory concentration (IC50) of each drug was determined from dose-response curves by using CalcuSyn software (Biosoft, Cambridge, United Kingdom).

three strains of MRSA = test: MIC, text statements on the three strains of MRSA together; format: cell-based, methicillin-resistant Staphylococcus aureus; settings: Staphylococcus aureus, read-out: MIC against MRSA
Experimental: Antibacterial assays. The MIC of each agent was determined following the guidelines for the broth microdilution method recommended by the Clinical and Laboratory Standards Institute. Wikler, M. A. Performance Standards for Antimicrobial Susceptibility Testing; Eighteenth Informational Supplement Clinical and Laboratory Standards Institute: 2008. Briefly, bacteria grown overnight on Luria Bertani (LB) agar plates were suspended in phosphate-buffered saline (PBS) to an O.D. of 1.0 at 600 nm, which was equivalent to 2×10^9 CFU/ml, and then diluted in CAMHB to a final concentration of 5×10^5 CFU/ml. […] The MIC of each agent was defined as the lowest concentration at which no growth of bacteria was observed.

MRSA ATCC 33592 = test: Time-kill assay; format: cell-based, methicillin-resistant Staphylococcus aureus; settings: for reduction in CFU: after 24-h exposure to 8 times the MIC, CAMHB
Experimental: Numbers of viable bacteria in the broth after each exposure period were enumerated by CFU assay, and the results expressed as CFU/ml. Points indicate means, and bars indicate SD (n=3). The dashed line represents 99.9% cell killing. Ctl, control.
Otherwise, it is considered bacteriostatic. Pankey, G. A.; Sabath, L. D. Clin. Infect. Dis., 38, 864-870 (2004). To category these novel agents, represented by compounds 9, 36, and 46, in this regard, their time-killing kinetics were assessed in MRSA ATCC 33592 over a 24-h treatment period. Overnight-grown bacteria were inoculated in cation-adjusted Muller Hinton broth (CAMHB) at a concentration of 5×10^5 CFU/ml followed by exposure to individual compounds at 2- to 8-fold their respective MIC values. […] Accordingly, compounds 36 and 46 were classified as bactericidal. As the killing was time-dependent, the antibacterial effect of these agents was not caused by the disruption of membrane integrity.
Time-kill assay. To analyze the kinetics of bacterial cell killing, MRSA ATCC 33592 cells at a density of 5×10^5 CFU/ml were treated with test agents at 2-, 4-, and 8-fold MICs in triplicate in 24-well plates. Bacterial survival in medium containing DMSO at a concentration equal to that used for drug-treated bacteria served as control. At different times after the start of drug exposure, a 100 μl aliquot of the bacterial suspension was taken from each well and serially diluted with PBS. The diluted samples were spread onto LB agar plates followed by incubation at 37° C. for 16 h. The bacterial colonies on each plate were enumerated, and the number of viable bacteria in each well was expressed as CFU per milliliter.

MRSA (SCCmec VT) = test: MIC, broth microdilution; format: cell-based, methicillin-resistant Staphylococcus aureus
[3] = system: S. lugdunesis (NTUH isolate); test: MIC, broth microdilution; format: cell-based; settings: read-out: MIC S. lugdunesis (NTUH isolate)
[4] = system: S. epidermidis (ATCC 12228); test: MIC, broth microdilution; format: cell-based; settings: Staphylococcus epidermidis, ATCC12228
MRSA (ATCC 49476) = test: MIC, broth microdilution; format: cell-based, methicillin-resistant Staphylococcus aureus; settings: Staphylococcus aureus
[5] = system: S. haemolyticus (ATCC 29970); test: MIC, broth microdilution; format: cell-based; settings: Staphylococcus haemolyticus, ATCC29970
S. hominis (ATCC 27844) = test: MIC, broth microdilution; format: cell-based; settings: Staphylococcus hominis, ATCC27844
[6] = system: S. saprophyticus (ATCC 15305); test: MIC, broth microdilution; format: cell-based; settings: Staphylococcus saprophyticus, ATCC15305

With `NC(=O)c1ccc(-n2nc(C(F)(F)F)cc2-c2c3ccccc3cc3ccccc23)cc1` [Compound 9, 4-(5-Anthracen-9-yl-3-trifluoromethyl-pyrazol-1-yl)-benzamide] the MIC (S. aureus (ATCC 29213)) was ≤ 2 µg/mL, the MIC [1] was ≤ 2 µg/mL and the MIC (MRSA (ATCC 33592)) was 2 µg/mL (≈ 4.64 µM). For the same compound, the IC50 [2] was 12 µg/mL (≈ 27.8 µM), the MIC (three strains of MRSA) was 0.5 to 2 µg/mL (≈ 1.16 to 4.64 µM) and the “reduction in CFU” value (MRSA ATCC 33592) was 99.14%. For the same compound, the “dose-dependent effect on cell killing” value (MRSA ATCC 33592; range of 2×-8×MIC) was “did not show a dose-dependent effect”.
For `NS(=O)(=O)Nc1ccc(-n2nc(C(F)(F)F)cc2-c2ccc3c(ccc4ccccc43)c2)cc1` [Compound 36, N-[4-(5-Phenanthren-2-yl-3-trifluoromethyl-pyrazol-1-yl)-phenyl]-aminosulfonamide], the MIC (S. aureus (ATCC 29213)) was ≤ 2 µg/mL, the MIC [1] was ≤ 2 µg/mL and the MIC (MRSA (SCCmec VT); Table XIII, S. aureus (SSCmecVT)) was 1 µg/mL (≈ 2.07 µM). For the same compound, the MIC [3] was 2 µg/mL (≈ 4.15 µM), the IC50 [2] was 12 µg/mL (≈ 24.9 µM) and the Selectivity ratio ([2]; IC50 (HT-29) / MIC against S. aureus) was 12. The “reduction in CFU” value (MRSA ATCC 33592) was 99.91%.
For `NS(=O)(=O)Nc1ccc(-n2nc(C(F)(F)F)cc2-c2ccc3cc4ccccc4cc3c2)cc1` [Compound 47, N-[4-(5-Anthracen-2-yl-3-trifluoromethyl-pyrazol-1-yl)-phenyl]-aminosulfonamide], the MIC (MRSA (ATCC 33592)) was 2 µg/mL (≈ 4.15 µM), the MIC (MRSA (SCCmec VT); Staphylococcus aureus, MRSA, read-out: MIC MRSA (SCCmec VT)) was 2 µg/mL (≈ 4.15 µM) and the MIC [4] was 2 µg/mL (≈ 4.15 µM). For the same compound, the MIC (MRSA (ATCC 49476)) was 2 µg/mL (≈ 4.15 µM), the MIC [5] was 16 µg/mL (≈ 33.2 µM) and the MIC (S. hominis (ATCC 27844)) was 2 µg/mL (≈ 4.15 µM). The MIC [6] was 8 µg/mL (≈ 16.6 µM) and the IC50 [2] was 11 µg/mL (≈ 22.8 µM).
